According to publication PMC12457599, “Targeting Acinetobacter baumannii lipase by coniferous species through metabolomics supported approach” (Scientific Reports, 2025):

Legend:
[1] = system: Staphylococcus aureus lipases; parameters: method as in PMID 17559400; conditions: cited from earlier work
[2] = system: A. baumannii strain (AB5075); experiment: Tetrazolium/formazan (TTC) assay, effective inhibitory concentration; format: cell-based, Acinetobacter baumannii
A. baumannii (AB5075) = experiment: Growth curve assay
[3] = system: A. baumannii strain (AB5075); experiment: Broth microdilution MIC; conditions: Acinetobacter baumannii, 24 h

MIC [3] [µg/mL]	Compound	IC50 [1] [µM]	EIC ([2]; TTC assay, lowest concentration preventing red color formation, tested 420–640 µg/mL) [µg/mL]	direct antimicrobial activity against A. baumannii ([2]; summary of MIC and EIC)	growth extent versus DMSO (A. baumannii (AB5075); 64 µg/mL)	growth extent versus DMSO (A. baumannii (AB5075); 128 µg/mL, mid-logarithmic and early stationary phases)
–	CC(C)=CCC/C(C)=C/CC/C(C)=C/CO [Farnesol]	570	–	–	–	–
> 128	CCCCCCCCCCC[C@@H](C[C@@H]1OC(=O)[C@H]1CCCCCC)OC(=O)[C@H](CC(C)C)NC=O [Orlistat, orlistat]	–	640	minimal direct antimicrobial activity	not	significant reduction in growth extent
